Laboratory results published in article PMC4691061, “Repositioning of Thiourea-Containing Drugs as Tyrosinase Inhibitors” (International Journal of Molecular Sciences, 2015).
Read-outs that look alike come from different tables or passages of the source.

Experiments:
mushroom tyrosinase [1] = target: T1, mushroom tyrosinase (Agaricus bisporus, UniProt C7FF04); experiment: Mushroom tyrosinase enzyme activity inhibition assay; type: biochemical; settings: for inhibition of tyrosinase enzyme activity (in words): concentration-dependent profiles, urea, thiourea, selenourea compared without DMSO; for inhibition of tyrosinase (in words): at 300 μM; for LE (ligand efficiency): 1.4 × (−log10IC50)/N, N = number of non-hydrogen atoms
T1 sequence (C7FF04 1-392): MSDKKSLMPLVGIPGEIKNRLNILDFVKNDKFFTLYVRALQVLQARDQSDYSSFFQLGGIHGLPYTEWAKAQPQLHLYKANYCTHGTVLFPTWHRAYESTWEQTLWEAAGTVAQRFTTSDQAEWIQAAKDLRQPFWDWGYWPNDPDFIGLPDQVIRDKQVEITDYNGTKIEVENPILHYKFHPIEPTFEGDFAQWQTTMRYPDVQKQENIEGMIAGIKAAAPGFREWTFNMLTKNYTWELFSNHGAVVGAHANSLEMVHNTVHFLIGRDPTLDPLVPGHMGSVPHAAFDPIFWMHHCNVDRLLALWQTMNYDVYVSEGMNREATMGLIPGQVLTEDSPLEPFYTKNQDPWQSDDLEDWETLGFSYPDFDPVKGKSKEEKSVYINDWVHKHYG

tyrosinase = settings: cited from earlier work
B16F10 cells [2] = experiment: Melanin content assay (IBMX-stimulated); type: cell-based, murine; settings: for activity at 20 µM: Mus musculus
B16F10 cells [3] = experiment: MTT cell viability assay; settings: for MTT (%): 20 µM, mean ± SD, triplicate
mushroom tyrosinase [4] = target: T1, mushroom tyrosinase; experiment: Kinetics of enzyme inhibition (Michaelis-Menten, nonlinear fitting, F-statistics); type: biochemical; settings: for Mechanism: model selected by F-statistics among competitive, uncompetitive, non-competitive, mixed
mammalian tyrosinase = target: T2, mammalian tyrosinase (Mus musculus, UniProt P11344); experiment: Tyrosinase enzyme assay with B16F10 cell lysates; type: biochemical, murine; settings: for Cell Lysate (%): B16F10 cell lysates, DOPA substrate, absence of inhibitor = 100%; for inhibition of mammalian tyrosinase (in words): cell extracts of B16F10 cells
T2 construct: host or cells: B16F10 murine melanoma cells (lysate supernatant)
T2 sequence (P11344 19-533): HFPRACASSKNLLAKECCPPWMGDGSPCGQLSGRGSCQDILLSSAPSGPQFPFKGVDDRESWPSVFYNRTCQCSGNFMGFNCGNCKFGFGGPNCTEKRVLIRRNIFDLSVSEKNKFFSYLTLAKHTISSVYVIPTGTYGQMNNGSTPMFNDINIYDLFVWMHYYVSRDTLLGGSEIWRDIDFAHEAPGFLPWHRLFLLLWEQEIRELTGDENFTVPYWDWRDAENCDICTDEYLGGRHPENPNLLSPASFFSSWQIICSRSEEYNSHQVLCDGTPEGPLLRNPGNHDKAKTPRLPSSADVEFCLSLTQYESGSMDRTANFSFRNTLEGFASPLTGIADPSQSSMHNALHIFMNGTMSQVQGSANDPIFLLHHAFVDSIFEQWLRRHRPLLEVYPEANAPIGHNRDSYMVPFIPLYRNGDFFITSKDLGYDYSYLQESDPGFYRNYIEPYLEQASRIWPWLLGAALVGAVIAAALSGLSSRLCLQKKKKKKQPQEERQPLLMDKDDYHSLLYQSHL

[5] = mushroom tyrosinase, 675 μM L-tyrosine as substrate, 5% DMSO, read-out: IC50
[6] = B16-F10, 20 µM, B16F10 cells, IBMX 100 μM, absence of inhibitor = 100%, read-out: Melanin Content (%)
[7] = Ki for competitive, Kic for non-competitive model, nonlinear data fitting, read-out: Ki or Kic
[8] = 20 μM, B16F10 cells, IBMX 100 μM
[9] = BindingDB-registered value, read-out: IC50 of closest known inhibitor

Cn1cc[nH]c1=S [compound 5, Methimazole]
IC50 (mushroom tyrosinase [1]; [5]): 94 µM
inhibition mechanism (reported) (tyrosinase): mixed inhibitor
activity at 20 µM (B16F10 cells [2]; [6]): 104 ± 12%
MTT (%) (B16F10 cells [3]): 100 ± 9%
Ki (mushroom tyrosinase [4]; [7]): 73 µM
Mechanism (mushroom tyrosinase [4]): Non-competitive
Mechanism (mushroom tyrosinase [4]; listed as methimazole): non-competitive inhibitor
Cell Lysate (%) (mammalian tyrosinase): 93 ± 10%
inhibition of mammalian tyrosinase (in words) (mammalian tyrosinase): limited

NNC(N)=S [thiosemicarbazide]
inhibition of tyrosinase enzyme activity (in words) (mushroom tyrosinase [1]): much weaker than thiourea

CNC(=S)NC [dimethylthiourea]
inhibition of tyrosinase (in words) (mushroom tyrosinase [1]): hardly inhibited tyrosinase
inhibition of tyrosinase enzyme activity (in words) (mushroom tyrosinase [1]): much weaker than thiourea

Nn1c(-c2ccncc2)n[nH]c1=S [C00012]
Ki (tyrosinase; BindingDB-registered value, column headed IC50, footnote says Ki, read-out: Ki of closest known inhibitor): 1000 nM

CCCc1cc(=O)[nH]c(=S)[nH]1 [compound 9, Propylthiouracil]
IC50 (mushroom tyrosinase [1]): 375 µM
activity at 20 µM (B16F10 cells [2]; [6]): 102 ± 10%
MTT (%) (B16F10 cells [3]): 102 ± 12%
Ki (mushroom tyrosinase [4]): 196 µM
Mechanism (mushroom tyrosinase [4]): Non-competitive
Cell Lysate (%) (mammalian tyrosinase): 77 ± 9%
inhibition of mammalian tyrosinase (in words) (mammalian tyrosinase): significantly inhibited the function of tyrosinase

CCOC(=O)n1ccn(C)c1=S [compound 6, Carbimazole]
inhibition of tyrosinase enzyme activity (in words) (mushroom tyrosinase [1]): did not inhibit tyrosinase
IC50 (mushroom tyrosinase [1]; [5]): > 2000 µM

CC(=O)Nc1ccc(/C=N/NC(N)=S)cc1 [compound 3, Thioacetazone]
IC50 (mushroom tyrosinase [1]): 14 µM
LE (ligand efficiency) (mushroom tyrosinase [1]): 0.43
activity at 20 µM (B16F10 cells [2]; [6]): 102 ± 10%
MTT (%) (B16F10 cells [3]): 95 ± 15%
Ki (mushroom tyrosinase [4]): 18 µM
Mechanism (mushroom tyrosinase [4]): Non-competitive
Cell Lysate (%) (mammalian tyrosinase): 74 ± 7%
inhibition of mammalian tyrosinase (in words) (mammalian tyrosinase): significantly inhibited the function of tyrosinase

O=c1cc(CO)occ1O [compound 2, Kojic acid]
inhibition mechanism (reported) (tyrosinase): competitive inhibitors
decrease of melanin content (B16F10 cells [2]; [8]): < 5%
activity at 20 µM (B16F10 cells [2]; [6]): 108 ± 11%
MTT (%) (B16F10 cells [3]): 114 ± 10%

CCCCOCCOc1ccc(Cc2c(O)[nH]c(=S)[nH]c2=O)cc1 [C00014]
IC50 (tyrosinase; [9]): 179 µM

N=C(N)[SeH] [selenourea]
inhibition of tyrosinase enzyme activity (in words) (mushroom tyrosinase [1]): no effect on activity

NC(N)=S [thiourea]
inhibition of tyrosinase enzyme activity (in words) (mushroom tyrosinase [1]): decreased tyrosinase enzyme activity in a concentration dependent manner

NC(N)=O [urea]
inhibition of tyrosinase enzyme activity (in words) (mushroom tyrosinase [1]): no effect on activity

NC(=S)NN=Cc1ccc(F)cc1 [C00010, 4-fluorobenzaldehyde thiosemicarbazone]
IC50 (tyrosinase; [9]): 11 µM

NC(=S)NN=C1CCCC1 [C00011, cyclopentanone thiosemicarbazone]
IC50 (tyrosinase; [9]): 0.17 µM

CNC(=S)N(C)C [trimethylthiourea]
inhibition of tyrosinase (in words) (mushroom tyrosinase [1]): hardly inhibited tyrosinase
inhibition of tyrosinase enzyme activity (in words) (mushroom tyrosinase [1]): much weaker than thiourea

O=c1cc[nH]c(=S)[nH]1 [compound 7, Thiouracil]
IC50 (mushroom tyrosinase [1]): 215 µM
LE (ligand efficiency) (mushroom tyrosinase [1]): 0.64
activity at 20 µM (B16F10 cells [2]; [6]): 106 ± 14%
MTT (%) (B16F10 cells [3]): 99 ± 10%
Mechanism (mushroom tyrosinase [4]): Non-competitive
Cell Lysate (%) (mammalian tyrosinase): 79 ± 9%
inhibition of mammalian tyrosinase (in words) (mammalian tyrosinase): significantly inhibited the function of tyrosinase

N=C(N)NN=C1C=CC(=NNC(N)=S)C=C1 [compound 4, Ambazone]
IC50 (mushroom tyrosinase [1]): 15 µM
LE (ligand efficiency) (mushroom tyrosinase [1]): 0.42
effect on melanin content (in words) (B16F10 cells [2]; 20 μM, B16F10 cells): decreased melanin content
decrease of melanin content (B16F10 cells [2]; [8]): 20%
activity at 20 µM (B16F10 cells [2]; [6]): 80 ± 11%
MTT (%) (B16F10 cells [3]): 95 ± 12%
cytotoxicity (in words) (B16F10 cells [3]; up to 20 μM): without causing cellular toxicity
Ki (mushroom tyrosinase [4]): 9 µM
Mechanism (mushroom tyrosinase [4]): Non-competitive
Cell Lysate (%) (mammalian tyrosinase): 87 ± 9%
inhibition of mammalian tyrosinase (in words) (mammalian tyrosinase): significantly inhibited the function of tyrosinase

O=c1[nH]c(=S)[nH]c(O)c1Cc1ccc(O)cc1 [C00013]
IC50 (tyrosinase; [9]): 70 µM
IC50 (tyrosinase; known tyrosinase inhibitor, read-out: IC50): 70 µM

Cc1cc(=O)[nH]c(=S)[nH]1 [compound 8, Methylthiouracil]
LE (ligand efficiency) (mushroom tyrosinase [1]): 0.56
IC50 (mushroom tyrosinase [1]; [5]): 266 µM
activity at 20 µM (B16F10 cells [2]; [6]): 102 ± 14%
MTT (%) (B16F10 cells [3]): 108 ± 10%
Ki (mushroom tyrosinase [4]; [7]): 170 µM
Mechanism (mushroom tyrosinase [4]): Non-competitive
Cell Lysate (%) (mammalian tyrosinase): 78 ± 10%
inhibition of mammalian tyrosinase (in words) (mammalian tyrosinase): significantly inhibited the function of tyrosinase

CNC(N)=S [monomethylthiourea]
inhibition of tyrosinase enzyme activity (in words) (mushroom tyrosinase [1]): much weaker than thiourea

CN(C)C(=S)N(C)C [tetramethylthiourea]
inhibition of tyrosinase (in words) (mushroom tyrosinase [1]): hardly inhibited tyrosinase
inhibition of tyrosinase enzyme activity (in words) (mushroom tyrosinase [1]): much weaker than thiourea

NC(=S)Nc1ccccc1 [compound 1, Phenylthiourea]
inhibition mechanism (reported) (tyrosinase): competitive inhibitors
decrease of melanin content (B16F10 cells [2]; [8]): 40%
activity at 20 µM (B16F10 cells [2]; B16-F10, read-out: Melanin Content (%)): 59 ± 7%
MTT (%) (B16F10 cells [3]): 113 ± 10%
Mechanism (mushroom tyrosinase [4]): Competitive
Mechanism (mushroom tyrosinase [4]; listed as PTU): competitive inhibitors
Cell Lysate (%) (mammalian tyrosinase): 5 ± 1%
